Toxic doses and inconclusive results are not listed. Square brackets hold non-standard residues; d marks the D form. Peptide text beside a SMILES is read from it. ξ: configuration not given here. ξE = NC(CCC(=O)O)C(=O)O
Tested on: L1210 leukemia ip in BDF1 mice, survival T/C
Test: NCI In Vivo Anticancer Drug Screen. Data for tumor model L1210 Leukemia (intraperitoneal) in B6D2F1 (BDF1) mice
Conditions: endpoint: mean survival time, higher = longer survival
In short: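 Survival endpoint. Drug-treated group vs vehicle group, expressed as T divided by C. Tumor passaged by transplantation.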

[1] = dose: 5.0 mg/kg/injection, schedule: Q01DX001 (ip), vehicle: saline
[2] = dose: 10.0 mg/kg/injection, schedule: Q01DX001 (ip), vehicle: saline
[3] = dose: 100.0 mg/kg/injection, schedule: Q01DX009 (ip), vehicle: Klucel (hydroxypropylcellulose) (HPC)
[4] = dose: 100.0 mg/kg/injection, schedule: Q04DX003 (ip), vehicle: Klucel (hydroxypropylcellulose) (HPC)
[5] = dose: 200.0 mg/kg/injection, schedule: Q01DX009 (ip), vehicle: Klucel (hydroxypropylcellulose) (HPC)
[6] = dose: 200.0 mg/kg/injection, schedule: Q04DX003 (ip), vehicle: Klucel (hydroxypropylcellulose) (HPC)
[7] = dose: 400.0 mg/kg/injection, schedule: Q04DX003 (ip), vehicle: Klucel (hydroxypropylcellulose) (HPC)
[8] = dose: 50.0 mg/kg/injection, schedule: Q01DX001 (ip), vehicle: saline
[9] = dose: 100.0 mg/kg/injection, schedule: Q01DX001 (ip), vehicle: saline
[10] = dose: 200.0 mg/kg/injection, schedule: Q01DX001 (ip), vehicle: saline
[11] = dose: 400.0 mg/kg/injection, schedule: Q01DX001 (ip), vehicle: saline

For `CCN(CC)CCN1C(=O)c2cccc3cccc(c23)C1=O`, the T/C (dose: 10.5 mg/kg/injection, schedule: Q03HX024 (ip), vehicle: saline) was 102 % of control, the T/C (dose: 15.7 mg/kg/injection, schedule: Q03HX024 (ip), vehicle: saline) was 98 % of control and the T/C (dose: 23.4 mg/kg/injection, schedule: Q03HX024 (ip), vehicle: saline) was 99 % of control. The T/C (dose: 34.8 mg/kg/injection, schedule: Q03HX024 (ip), vehicle: saline) was 111 % of control, the T/C (dose: 52.0 mg/kg/injection, schedule: Q03HX024 (ip), vehicle: saline) was 165 % of control and the T/C (dose: 96.0 mg/kg/injection, schedule: Q01DX009 (ip), vehicle: saline) was 111 % of control. The T/C (dose: 96.0 mg/kg/injection, schedule: Q03HX024 (ip), vehicle: saline) was 96 % of control, the T/C (dose: 105.0 mg/kg/injection, schedule: Q01DX001 (ip), vehicle: saline) was 103 % of control and the T/C (dose: 105.0 mg/kg/injection, schedule: Q04DX003 (ip), vehicle: saline) was 100 % of control. The T/C (dose: 157.0 mg/kg/injection, schedule: Q01DX001 (ip), vehicle: saline) was 100 % of control and the T/C (dose: 157.0 mg/kg/injection, schedule: Q04DX003 (ip), vehicle: saline) was 110 % of control.
With `OCC1OC(n2cc(Br)c3c(NO)ncnc32)C(O)C1O` (stereo unspecified) the T/C [1] was 103 % of control and the T/C [2] was 101 % of control.
With `CN(C)c1ccc(Cc2ccc(N(C)C)cc2[N+](=O)[O-])cc1` the T/C [3] was 102 % of control, the T/C [4] was 96 % of control and the T/C [5] was 93 % of control. The T/C [6] was 96 % of control, the T/C (dose: 400.0 mg/kg/injection, schedule: Q01DX009 (ip), vehicle: Klucel (hydroxypropylcellulose) (HPC)) was 95 % of control and the T/C [7] was 101 % of control.
With `NC(N)=N/N=C/C(F)(F)F` the T/C (dose: 15.0 mg/kg/injection, schedule: Q01DX Z (ip), vehicle: methylcellulose (MC)) was 105 % of control, the T/C (dose: 30.0 mg/kg/injection, schedule: Q01DX Z (ip), vehicle: methylcellulose (MC)) was 102 % of control and the T/C (dose: 60.0 mg/kg/injection, schedule: Q01DX Z (ip), vehicle: methylcellulose (MC)) was 112 % of control. The T/C (dose: 60.0 mg/kg/injection, schedule: Q01DX Z (oral), vehicle: methylcellulose (MC)) was 92 % of control, the T/C (dose: 120.0 mg/kg/injection, schedule: Q01DX Z (ip), vehicle: methylcellulose (MC)) was 97 % of control and the T/C (dose: 120.0 mg/kg/injection, schedule: Q01DX Z (oral), vehicle: methylcellulose (MC)) was 93 % of control. For the same compound, the T/C (dose: 240.0 mg/kg/injection, schedule: Q01DX Z (ip), vehicle: methylcellulose (MC)) was 88 % of control, the T/C (dose: 240.0 mg/kg/injection, schedule: Q01DX Z (oral), vehicle: methylcellulose (MC)) was 102 % of control and the T/C (dose: 420.0 mg/kg/injection, schedule: Q01DX Z (ip), vehicle: methylcellulose (MC)) was 88 % of control. The T/C (dose: 480.0 mg/kg/injection, schedule: Q01DX Z (oral), vehicle: methylcellulose (MC)) was 95 % of control.
`O=C(CCCc1ccc(N(CCCl)CCCl)cc1)Nc1ccc(F)cc1` was tested, and the T/C (dose: 4.0 mg/kg/injection, schedule: Q12HX018 (ip), vehicle: other) was 103 % of control, the T/C (dose: 6.0 mg/kg/injection, schedule: Q12HX018 (ip), vehicle: other) was 106 % of control and the T/C (dose: 8.0 mg/kg/injection, schedule: Q12HX018 (ip), vehicle: other) was 104 % of control.
`NC(CCC(=O)O)C(=O)NCC(=O)O` (stereo unspecified) (H-[ξE]-Gly-OH) was tested, and the T/C (dose: 12.5 mg/kg/injection, schedule: Q04DX002 (ip), vehicle: saline) was 96 % of control, the T/C (dose: 25.0 mg/kg/injection, schedule: Q04DX002 (ip), vehicle: saline) was 102 % of control and the T/C (dose: 50.0 mg/kg/injection, schedule: Q04DX002 (ip), vehicle: saline) was 90 % of control.
In the case of `COc1ccc(NC(=O)Nc2ccc(CCO)cc2)c(OC)c1`, the T/C (dose: 100.0 mg/kg/injection, schedule: Q04DX002 (ip), vehicle: Klucel (hydroxypropylcellulose) (HPC)) is reported as 97 % of control, the T/C (dose: 200.0 mg/kg/injection, schedule: Q04DX002 (ip), vehicle: Klucel (hydroxypropylcellulose) (HPC)) is reported as 93 % of control and the T/C (dose: 400.0 mg/kg/injection, schedule: Q04DX002 (ip), vehicle: Klucel (hydroxypropylcellulose) (HPC)) is reported as 93 % of control.
With `Cc1c(F)c(I)c(Br)c(C)c1[N+](=O)[O-]` the T/C (dose: 75.0 mg/kg/injection, schedule: Q04DX003 (ip), vehicle: Klucel (hydroxypropylcellulose) (HPC)) was 104 % of control, the T/C (dose: 150.0 mg/kg/injection, schedule: Q04DX003 (ip), vehicle: Klucel (hydroxypropylcellulose) (HPC)) was 88 % of control and the T/C (dose: 300.0 mg/kg/injection, schedule: Q04DX003 (ip), vehicle: Klucel (hydroxypropylcellulose) (HPC)) was 93 % of control.
For `COc1cccc(/C=N/Nc2nnc(N/N=C/c3cccc(OC)c3OC)c3ccccc23)c1OC`, the T/C [8] was 92 % of control, the T/C [9] was 92 % of control and the T/C [10] was 92 % of control. For the same compound, the T/C [11] was 94 % of control.
With `CC(=O)c1c(O)c(Br)c(C)oc1=O` the T/C (dose: 6.25 mg/kg/injection, schedule: Q01DX009 (ip), vehicle: Klucel (hydroxypropylcellulose) (HPC)) was 100 % of control, the T/C (dose: 12.5 mg/kg/injection, schedule: Q01DX009 (ip), vehicle: Klucel (hydroxypropylcellulose) (HPC)) was 96 % of control and the T/C (dose: 25.0 mg/kg/injection, schedule: Q01DX009 (ip), vehicle: Klucel (hydroxypropylcellulose) (HPC)) was 93 % of control. For the same compound, the T/C (dose: 50.0 mg/kg/injection, schedule: Q01DX009 (ip), vehicle: Klucel (hydroxypropylcellulose) (HPC)) was 89 % of control.
In the case of `CC(C)(C)C1C(=O)N1C(C)(C)C` (stereo unspecified), the T/C [3] is reported as 103 % of control, the T/C [4] is reported as 101 % of control and the T/C [5] is reported as 101 % of control. For the same compound, the T/C [6] was 97 % of control and the T/C [7] was 97 % of control.
In the case of `O=C(Nc1ccc([N+](=O)[O-])cc1Cl)Sc1ccccc1O`, the T/C (dose: 100.0 mg/kg/injection, schedule: Q01DX009 (ip), vehicle: saline with Tween-80) is reported as 104 % of control, the T/C (dose: 200.0 mg/kg/injection, schedule: Q01DX009 (ip), vehicle: saline with Tween-80) is reported as 104 % of control and the T/C (dose: 400.0 mg/kg/injection, schedule: Q01DX009 (ip), vehicle: saline with Tween-80) is reported as 86 % of control.
In the case of `NC(CCCCn1nnc2c(=O)[nH]cnc21)C(=O)O` (stereo unspecified), the T/C (dose: 100.0 mg/kg/injection, schedule: Q04DX003 (ip), vehicle: saline) is reported as 106 % of control, the T/C (dose: 200.0 mg/kg/injection, schedule: Q04DX003 (ip), vehicle: saline) is reported as 103 % of control and the T/C (dose: 400.0 mg/kg/injection, schedule: Q04DX003 (ip), vehicle: saline) is reported as 97 % of control.
`CCCCOP(=O)(OCCCC)Oc1c(Cl)c(Cl)c(Cl)c(Cl)c1Cl` was tested, and the T/C (dose: 100.0 mg/kg/injection, schedule: Q04DX002 (sc), vehicle: olive oil, sesame oil, peanut oil) was 107 % of control, the T/C (dose: 200.0 mg/kg/injection, schedule: Q04DX002 (sc), vehicle: olive oil, sesame oil, peanut oil) was 100 % of control and the T/C (dose: 400.0 mg/kg/injection, schedule: Q04DX002 (sc), vehicle: olive oil, sesame oil, peanut oil) was 104 % of control.
With `Nc1nc[nH]c1C(=O)NO` the T/C [9] was 100 % of control, the T/C [10] was 103 % of control and the T/C [11] was 92 % of control.
With `C=C(C)C(=O)CC(=O)C1CCc2cc(OC)ccc2C1=O` (stereo unspecified) the T/C (dose: 100.0 mg/kg/injection, schedule: Q01DX009 (ip), vehicle: saline sonified) was 102 % of control, the T/C (dose: 200.0 mg/kg/injection, schedule: Q01DX009 (ip), vehicle: saline sonified) was 96 % of control and the T/C (dose: 400.0 mg/kg/injection, schedule: Q01DX009 (ip), vehicle: saline sonified) was 100 % of control.
With `COc1ccc(CN(CCOC(=O)c2ccc(OC)cc2)CCN(CCOC(=O)c2ccc(OC)cc2)Cc2ccc(OC)cc2)cc1` the T/C (dose: 12.5 mg/kg/injection, schedule: Q01DX009 (ip), vehicle: other) was 91 % of control, the T/C (dose: 25.0 mg/kg/injection, schedule: Q01DX009 (ip), vehicle: other) was 86 % of control and the T/C (dose: 25.0 mg/kg/injection, schedule: Q01DX009 (ip), vehicle: water) was 88 % of control. The T/C (dose: 50.0 mg/kg/injection, schedule: Q01DX009 (ip), vehicle: other) was 91 % of control, the T/C (dose: 50.0 mg/kg/injection, schedule: Q01DX009 (ip), vehicle: water) was 93 % of control and the T/C (dose: 100.0 mg/kg/injection, schedule: Q01DX009 (ip), vehicle: other) was 88 % of control. The T/C (dose: 100.0 mg/kg/injection, schedule: Q01DX009 (ip), vehicle: water) was 87 % of control, the T/C (dose: 200.0 mg/kg/injection, schedule: Q01DX009 (ip), vehicle: water) was 88 % of control and the T/C (dose: 400.0 mg/kg/injection, schedule: Q01DX009 (ip), vehicle: water) was 92 % of control.
For `CCN(CCO)c1ccc(N=O)cc1`, the T/C [1] was 95 % of control, the T/C [2] was 101 % of control and the T/C [8] was 90 % of control.
